According to patent US12134620B2 (ARAXES PHARMA LLC, priority 2018, dated 2024):

Target: T1, KRAS G12C 1-169, his-tagged protein, GDP-loaded (Homo sapiens, UniProt P01116, G12C)
T1 construct: KRAS G12C 1-169, his-tagged protein, GDP-loaded; His tag
Test: Biochemical assay: covalent modification of KRAS G12C, analysed by mass spectrometry (RapidFire/TOF or Q-Exactive); also: time not given here
Format: binding
Settings: Modification activity, modification percentage from MS peak intensities
Summary of the method: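 Covalent adduct formation was quantified by intact-protein mass spectrometry, either TOF or C4 LC-Q Exactive Plus, as percent modified versus unmodified protein after deconvolution. Compounds at 8 or 32 μM final were incubated with 0.5 or 2 μM GDP-bound KRAS G12C(1-169)-His in Hepes/NaCl/MgCl2 buffer before acid quench.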

Structure (SMILES)	Binding %
C=CC(=O)N1CC2(CCN(c3nc(N4CCOCC4)nc(-c4c(F)ccc5cnn(C)c45)c3C#N)C2)C1 [Compound I-119, 4-(2-acryloyl-2,6-diazaspiro[3.4]octan-6-yl)-6-(6-fluoro-1-methyl-1H-indazol-7-yl)-2-morpholinopyrimidine-5-carbontrile]	++ (++ indicates binding activity from 50 to 85%)
C=CC(=O)N1CC2(CCN(c3nc(N4CCOCC4)nc(-c4c(F)ccc5cnn(C6CC6)c45)c3C#N)C2)C1 [Compound I-120, 4-(2-acryloyl-2,6-diazaspiro[3.4]octan-6-yl)-6-(1-cyclopropyl-6-fluoro-1H-indazol-7-yl)-2-morpholinopyrimidine-5-carbonitrile]	+++ (+++ indicates binding activity greater than 85%)
C=CC(=O)N1CC2(CCN(c3nc(N4CCOCC4)nc(-c4c(C)ccc5[nH]ncc45)c3OC)C2)C1 [Compound I-121, 1-(6-(5-methoxy-6-(5-methyl-1H-indazol-4-yl)-2-morpholinopyrimidin-4-yl)-2,6-diazaspiro[3.4]octan-2-yl)prop-2-en-1-one]	++ (++ indicates binding activity from 50 to 85%)
C=CC(=O)N1CC2(CCN(c3nc(N4CCCC(O)C4)nc(-c4c(C)ccc5[nH]ncc45)c3C#N)C2)C1 (stereo not shown) [Compound I-122, 4-(2-acryloyl-2,6-diazaspiro[3.4]octan-6-yl)-2-(3-hydroxypiperidin-1-yl)-6-(5-methyl-1H-indazol-4-yl)pyrimidine-5-carbonitrile]	++ (++ indicates binding activity from 50 to 85%)
C=CC(=O)N1CC2(CCN(c3nc(OCc4ccccn4)nc(-c4c(F)ccc5cnn(C)c45)c3C#N)C2)C1 [Compound I-123, 4-(2-acryloyl-2,6-diazaspiro[3.4]octan-6-yl)-6-(6-fluoro-1-methyl-1H-indazol-7-yl)-2-(pyridin-2-ylmethoxy)pyrimidine-5-carbonitrile]	+ (+ indicates binding activity greater than 0% and up to 50%)
C=CC(=O)N1CC2(CCN(c3nc(OC[C@@H]4CCCN4C)nc(-c4c(F)ccc5cnn(C6CC6)c45)c3C#N)C2)C1 [Compound I-124, 4-(2-acryloyl-2,6-diazaspiro[3.4]octan-6-yl)-6-(1-cyclopropyl-6-fluoro-1H-indazol-7-yl)-2-(((S)-1-methylpyrrolidin-2-yl)methoxy)pyrimidine-5-carbonitrile]	+ (+ indicates binding activity greater than 0% and up to 50%)
C=CC(=O)N1CC2(CCN(c3nc(OCC(=O)N4CCCC4)nc(-c4c(C)ccc5[nH]ncc45)c3C#N)C2)C1 [Compound I-127, 4-(2-acryloyl-2,6-diazaspiro[3.4]octan-6-yl)-6-(5-methyl-1H-indazol-4-yl)-2-(2-oxo-2-(pyrrolidin-1-yl)ethoxy)pyrimidine-5-carbonitrile]	+ (+ indicates binding activity greater than 0% and up to 50%)
C=CC(=O)N1CC2(CC(=O)N(c3nc(N4CCOCC4)nc(-c4c(C)ccc5[nH]ncc45)c3C#N)C2)C1 [Compound I-130, 4-(2-acryloyl-7-oxo-2,6-diazaspiro[3.4]octan-6-yl)-6-(5-methyl-1H-indazol-4-yl)-2-morpholinopyrimidine-5-carbonitrile]	++ (++ indicates binding activity from 50 to 85%)
C=CC(=O)N1CC2(CCN(c3nc(-c4c(C)ccc5[nH]ncc45)ncc3C#N)C2)C1 [Compound I-141, 4-(2-acryloyl-2,6-diazaspiro[3.4]octan-6-yl)-2-(5-methyl-1H-indazol-4-yl)pyrimidine-5-carbonitrile]	+ (+ indicates binding activity greater than 0% and up to 50%)
C=CC(=O)N1CC2(CCN(c3nc(-c4c(C)ccc5[nH]ncc45)c(C#N)c(N4CCOCC4)n3)C2)C1 [Compound I-142, 2-(2-acryloyl-2,6-diazaspiro[3.4]octan-6-yl)-4-(5-methyl-1H-indazol-4-yl)-6-morpholinopyrimidine-5-carbonitrile]	+ (+ indicates binding activity greater than 0% and up to 50%)
C=CC(=O)N1CC2(CCN(c3nc(-c4c(C)ccc5[nH]ncc45)cc(N4CC(N(C)C)C4)n3)C2)C1 [Compound I-143, 1-(6-(4-(3-(dimethylamino)azeti-din-1-yl)-6-(5-methyl-1H-indazol-4-yl)pyrimidin-2-yl)-2,6-diazaspiro[3.4]octan-2-yl)prop-2-en-1-one]	+ (+ indicates binding activity greater than 0% and up to 50%)
C=CC(=O)N1CC2(CCN(c3nc(-c4c(C)ccc5[nH]ncc45)cc(N4CCOCC4)n3)C2)C1 [Compound I-144, 1-(6-(4-(5-methyl-1H-indazol-4-yl)-6-morpholinopyrimidin-2-yl)-2,6-diazaspiro[3.4]octan-2-yl)prop-2-en-1-one]	+ (+ indicates binding activity greater than 0% and up to 50%)
C=CC(=O)N1CC2(CCN(c3ncc(C#N)c(-c4c(C)ccc5[nH]ncc45)n3)C2)C1 [Compound I-145, 2-(2-acryloyl-2,6-diazaspiro[3.4]octan-6-yl)-4-(5-methyl-1H-indazol-4-yl)pyrimidine-5-carbonitrile]	+ (+ indicates binding activity greater than 0% and up to 50%)
C=CC(=O)N1CC2(CCN(c3nc(OCCCN(C)C)cc(-c4c(C)ccc5[nH]ncc45)n3)C2)C1 [Compound I-146, 1-(6-(4-(3-(dimethylamino)pro-poxy)-6-(5-methyl-1H-indazol-4-yl)pyrimidin-2-yl)-2,6-diazaspiro[3.4]octan-2-yl)prop-2-en-1-one]	+ (+ indicates binding activity greater than 0% and up to 50%)
C=CC(=O)N1CC2(CCN(c3nc(-c4c(C)ccc5[nH]ncc45)c(C#N)c(N4CC(N(C)C)C4)n3)C2)C1 [Compound I-147, 2-(2-acryloyl-2,6-diazaspiro[3.4]octan-6-yl)-4-(3-(dimethylamino)azeti-din-1-yl)-6-(5-methyl-1H-indazol-4-yl)pyrimidine-5-carbonitrile]	+ (+ indicates binding activity greater than 0% and up to 50%)
C=CC(=O)N1CC2(CCN(c3nc(OC[C@@H]4CCCN4C)cc(-c4c(C)ccc5[nH]ncc45)n3)C2)C1 [Compound I-148, (S)-1-(6-(4-(5-methyl-1H-indazol-4-yl)-6-((1-methylpyrrolidin-2-yl)methoxy)pyrimidin-2-yl)-2,6-diazaspiro[3.4]octan-2-yl)prop-2-en-1-one]	+ (+ indicates binding activity greater than 0% and up to 50%)
C=CC(=O)N1CC2(CCN(c3nc(OCc4cnc(OC)nc4)nc(-c4c(C)ccc5[nH]ncc45)c3C#N)C2)C1 [Compound I-149, 4-(2-acryloyl-2,6-diazaspiro[3.4]octan-6-yl)-2-((2-methoxypyrimidin-5-yl)methoxy)-6-(5-methyl-1H-indazol-4-yl)pyrimidine-5-carbonitrile]	+++ (+++ indicates binding activity greater than 85%)
C=CC(=O)N1CC2(CCN(c3nc(OCc4cccnc4)nc(-c4c(C)ccc5[nH]ncc45)c3C#N)C2)C1 [Compound I-150, 4-(2-acryloyl-2,6-diazaspiro[3.4]octan-6-yl)-6-(5-methyl-1H-indazol-4-yl)-2-(pyridin-3-ylmethoxy)pyrimidine-5-carbonitrile]	++ (++ indicates binding activity from 50 to 85%)
C=CC(=O)N1CC2(CCN(c3nc(OCc4cccc(OC)c4)nc(-c4c(C)ccc5[nH]ncc45)c3C#N)C2)C1 [Compound I-151, 4-(2-acryloyl-2,6-diazaspiro[3.4]octan-6-yl)-2-((3-methoxybenzyl)oxy)-6-(5-methyl-1H-indazol-4-yl)pyrimidine-5-carbonitrile]	++ (++ indicates binding activity from 50 to 85%)
C=CC(=O)N1CC2(CCN(c3nc(OCc4cc(F)cc(F)c4)nc(-c4c(C)ccc5[nH]ncc45)c3C#N)C2)C1 [Compound I-152]	++ (++ indicates binding activity from 50 to 85%)
C=CC(=O)N1CC2(CCN(c3nc(OCc4ccc(N5CCOCC5)cn4)nc(-c4c(C)ccc5[nH]ncc45)c3C#N)C2)C1 [Compound I-153, 4-(2-acryloyl-2,6-diazaspiro[3.4]octan-6-yl)-6-(5-methyl-1H-indazol-4-yl)-2-((5-morpholinopyridin-2-yl)methoxy)pyrimidine-5-carbonitrile]	++ (++ indicates binding activity from 50 to 85%)
C=CC(=O)N1CC2(CCN(c3nc(OCc4ncccn4)nc(-c4c(C)ccc5[nH]ncc45)c3C#N)C2)C1 [Compound I-154, 4-(2-acryloyl-2,6-diazaspiro[3.4]octan-6-yl)-6-(5-methyl-1H-indazol-4-yl)-2-(pyrimidin-2-ylmethoxy)pyrimidine-5-carbonitrile]	++ (++ indicates binding activity from 50 to 85%)
C=CC(=O)N1CC2(CCN(c3nc(OCc4ccc(C(F)(F)F)cn4)nc(-c4c(C)ccc5cnn(C)c45)c3C#N)C2)C1 [Compound I-155, 4-(2-acryloyl-2,6-diazaspiro[3.4]octan-6-yl)-6-(1,6-dimethyl-1H-indazol-7-yl)-2-((5-(trifluoromethyl)pyri-din-2-yl)methoxy)pyrimidine-5-carbonitrile]	++ (++ indicates binding activity from 50 to 85%)
C=CC(=O)N1CC2(CCN(c3nc(OCc4cccc(C(F)(F)F)n4)nc(-c4c(C)ccc5cnn(C)c45)c3C#N)C2)C1 [Compound I-156, 4-(2-acryloyl-2,6-diazaspiro[3.4]octan-6-yl)-6-(1,6-dimethyl-1H-indazol-7-yl)-2-((6-(trifluoromethyl)pyri-din-2-yl)methoxy)pyrimidine-5-carbonitrile]	++ (++ indicates binding activity from 50 to 85%)
C=CC(=O)N1CC2(CCN(c3nc(OCc4ccc(C(F)(F)F)cc4)nc(-c4c(C)ccc5cnn(C)c45)c3C#N)C2)C1 [Compound I-157, 4-(2-acryloyl-2,6-diazaspiro[3.4]octan-6-yl)-6-(1,6-dimethyl-1H-indazol-7-yl)-2-((4-(trifluoromethyl)ben-zyl)oxy)pyrimidine-5-carbonitrile]	++ (++ indicates binding activity from 50 to 85%)
